In patent US7482008B1, “Human T cell reactive feline protein (TRFP) isolated from house dust and uses therefor” (Merck Patent GmbH, priority 1989, dated 2009):

What was measured:
Format in all cases: cell-based, human
[1] = system: T cells from cat allergic patients; assay: T cell proliferation of TRFP-primed T cells from cat allergic patients (tritiated thymidine), Example 5 Part A; settings: for secondary T cell response of patient 131: FIG. 8
Method: Peripheral blood mononuclear cells (PBMC) were purified from 60 ml of heparinized blood from cat allergic patients. PBMC were subsequently treated as described below, although in individual cases, the length of time of cultivation with IL-2 and/or IL-4 and the specific peptides used for stimulation varied.
10 ml of PBMC from patient 131 at 10^6 /ml were cultured at 37° C. for 7 days in the presence of 5 μg purified TRFP/ml RPMI-1640 supplemented with 5% pooled human AB serum. Viable cells were purified by Ficoll-Hypaque centrifugation and cultured for three weeks at 5 units recombinant human IL-2/ml and 5 units recombinant human IL-4/ml. The resting T cells were then restimulated (secondary) with 5 μg TRFP at 2×10^5/ml in the presence of irradiated (3500 Rads) autologous PBMC at a concentration of 5×10^5/ml for three days, purified by Ficoll-Hypaque centrifugation and grown in 5 units IL-2 and 5 units IL-4/ml for two weeks. For assay, 2×10^4 resting secondary T cells were restimulated (tertiary) in the presence of 5×10^4 irradiated (3500 Rads) autologous PBMC or 2×10^4 transformed B cells (20,000 Rads) with various concentrations of allergens or their fragments in a volume of 200 microliters in a 96-well round bottom assay plates for 3 days. Each well then received 1 μCurie tritiated (methyl) thymidine for 16 hours. The counts incorporated were collected onto glass fiber filters and processed for liquid scintillation counting.
Antigens used: T cell reactive feline protein (TRFP), Hollister-Stier cat epithelium skin test reagent (CST), IPC ragweed pollen extract (pollen), and synthetic peptides derived from TRFP protein sequence (See FIGS. 6 and 7). Positive T cell proliferation is for these experiments was considered to be greater than 2.5 times the media control (T cells and antigen presenting cells alone).
Alternatively, PBMC were treated as follows: The primary stimulated cells were cultured in IL-2/IL-4 for two weeks. The resting T cells derived from this culture were tested in a secondary assay with some, but not all, of the above allergens. […] This type of epitope analysis has allowed the definition of T cell epitopes present in TRFP.

[2] = system: T cells from cat-allergic patients; assay: Secondary proliferation assay of T cells primed with TRFP, peptide YXZ or peptide YZX
Method: The human cat allergic T cell response to peptides produced as above was examined. […] Peptide YZX was cleaved with thrombin as described in Example 25. Viable cells were then purified by Ficoll-Hypaque centrifugation and cultured for 2 additional weeks in RPMI-1640/5% AB serum containing 5 units recombinant human IL-2/ml and 5 units recombinant human IL-4/ml. The resting T cells were then tested in a secondary proliferation assay using a 96 well microtiter plate to assess T cell responses to various TRFP proteins or peptides (TRFP antigens). For assay, 2×10^4 resting T cells were cultured for 3 days at 37° C. in the presence of 2×10^4 autologous Epstein-Barr virus transformed B cells (25,000 Rads) as antigen presenting cells with various concentrations of antigen in 200 μl per well. Each well then received 1 μCi tritiated thymidine for 16 hours. The counts incorporated were collected onto glass fiber filters and processed for liquid scintillation counting. The stimulation indices for responses to each antigen were then calculated as the maximum CPM in response to antigen divided by the medium control CPM. A stimulation index of 2.5 was considered to be a positive T cell response. A summary of the results of 3 such experiments (patients 522, 519, and 386 is shown in FIG. 35a, FIG. 35b and FIG. 35c). As compared to the experiments shown in FIGS. 35a and 35b in the experiment shown in […], Fel-1.4 (chain 1, amino acid residues 6-17) was substituted for Fel-1.2 (chain 1, amino acid residues 1-17) and Fel-33.3 (chain 2, amino acid residues 26-40) was substituted for Fel-18 (chain 2, amino acid residues 23-48) in order to more closely resemble the constituent amino acids of peptides X and Z. In addition, in this experiment one peptide derived from the Y-Z junction of peptide YZX (amino acid residues 50-55 from chain 1 of TRFP and amino acid residues 14-19 from chain 2 of TRFP) and one peptide derived from the Z-X junction of peptide YZX (amino acid residues 34-39 of chain 2 of TRFP and amino acid residues 7-12 of chain 1 of TRFP) were synthesized and tested. These junction peptides were produced in order to determine whether these areas of peptide YZX produce a non-native epitope when formed in the peptide.

[3] = system: PBMC from cat-allergic patients; assay: IL-2, IFN-gamma and IL-4 measurements by PCR in primary 36 hour PBMC culture; settings: Patient 409 primary 36 hour culture
Method: Peripheral blood mononuclear cells (PBMC) were purified from cat-allergic patients as described in Example 5. Five×10^6 PBMC were cultured at 2×10^6/ml for 36 hours in the presence of medium only, 20 μg purified TRFP/ml or 50 μg peptide/ml. The cells were then washed two times with phosphate buffered saline (PBS, pH 7.2) and lysed with 2 ml […] guanidinium isothiocyanate, 0.5% Sarkosyl, 5 mM sodium citrate, 0.1 M 2-mercaptoethanol, pH 7.0. The lysate was then forced through a 26 gauge needle to shear genomic DNA, and was layered onto a 2 ml cushion of 5.7 M CsCl, 0.01 M EDTA, pH 7.5 in diethylpyrocarbonate (DEPC)-treated water. The lysate was centrifuged at 35,000 RPM in a Beckman SW41 rotor for 18 hours at 20° C. The RNA pellet was resuspended in 0.4 ml TE (10 mM Tris, 1 mM EDTA), pH 7.5, 0.1% SDS, and then extracted three times with 0.5 ml phenol/0.2 ml chloroform. The RNA was then precipitated on dry ice with 2.5 volumes ice-cold ethanol, 1/10 volume 3 M sodium acetate, pH 5.2 in DEPC-treated water, rinsed once with 70% ethanol in DEPC-treated water, and dried. The RNA pellet was resuspended in 2 μl TE., pH 7.5 in DEPC-treated water.
Total cellular RNA was converted to cDNA using the Superscript kit (BRL, Bethesda, Md.). Two μl of RNA were added to one μl oligo (dT)12-18 (500 μg/ml) and 9 μl water. The sample was heated to 70° C. for 10 minutes and ice quenched. Four μl 5× buffer were added to the sample along with 2 μl 0.1 M DTT and 1 μl dNTP mix (10 mM each, dATP, dCTP, dGTP, dTTP). One μl reverse transcriptase (200U) was added and the reaction was carried out for one hour at 42° C. The reaction was terminated by incubation of the sample at 90° C. for five minutes and stored at −80° C.
Ten-fold serial dilutions of T cell cDNA in 10 mM TRIS, pH 7.5 were amplified using the standard kit and protocol recommended by Perkin Elmer-Cetus (Redwood City, Calif.). Each sample received 26.65 μl water, 5 μl ×PCR buffer, 8 μl of dNTP mix (1.25 mM each of dATP, dCTP, dGTP and dTTP), 0.1 μl alpha 32P-dCTP (3000 Ci/mmol), 0.25 μl AmpliTaq, 5 μl cDNA and 5 μl cytokine-specific 5′ and 3′ primers (20 micromolar). The primers used for most cytokines and the beta-actin control were purchased from Clontech (Redwood City, Calif.). The human IL-4 primers were purchased from Research Genetics (Huntsville, Ala.) and had the following sequences: 5′ hIL-4 primer (SEQ. ID. NO: 58):
The PCR products were extracted once with 25 μl chloroform and 25 μl of each sample were then electrophoresed on an 8% polyacrylamide gel at 250 V. The gel was dried and exposed to pre-flashed x-ray film. Several exposures of each gel were then scanned using a Shimadzu flying spot laser densitometer. Values on the linear portion of the titrations were then compared to the medium control values to obtain a stimulation index for each sample. Primers for beta-actin were included as a control for general cDNA levels in each sample. Where the medium control values are not detectable, the lowest measurable response was set at 1.00. In other experiments, levels of cytokine cDNA can be compared directly with previously amplified cytokine specific cDNAs as standards. Thus, absolute levels of particular cytokine cDNAs can be compared from one sample to another and from one experiment to another. In this experiment, IL-2, IL-4 and IFN-gamma levels were measured. As shown, in this particular cat-allergic patient, peptides such as Fel 18 generate more IL-4 than certain other TRFP-derived peptides (Fel 14 and Fel 17). This analysis will be expanded to studies of other cytokines involved in the generation of allergic responses, such as IL-5, IL-8, IL-9, TGF-beta. Samples of cDNA from each treatment can also be saved for later analysis once additional cytokines are identified and sequenced. Peptides generating a spectrum of cytokines favorable for the generation of allergic responses can be avoided for therapeutic use in the treatment of cat allergy. […]

[4] = Table 2, chain #1 TRFP peptides, average SI of responding patients multiplied by percent of patients with positive response (SI >2.5)
[5] = Table 2, chain #1 TRFP peptides, average cpm with antigen divided by cpm of T cells and APC alone, responding patients
[6] = patient 386, T cells primed with YZX
[7] = patient 522, T cells primed with YXZ
[8] = patient 522, T cells primed with native TRFP, SI 2.5 positive
[9] = Table 3, chain #2 TRFP peptides

Row | Substance | PI [1, 4] | SI [1, 5] | PI [1, 9] | SI [1, 9] | other results
1 | DVDLFLTGTPDEYVEQV [Fel 2, TRFP chain 1 amino acids 9-25] | 416 | 7.3 | – | – | T cell response [2, 6]: respond at a similar level or better; T cell response [2, 7]: respond at a similar level or better
2 | EITPAVKRDVDLFLTGT [Fel 1, TRFP chain 1 amino acids 1-17, amino acid 3 changed to T] | 392 | 5.6 | – | – | secondary T cell response of patient 131 [1]: respond
3 | Fel 1-4: TRFP chain 1 amino acids 6-17 (VKRDVDLFLTGT; UniProt P30438 28-39, looked up, fragment) | 816 | 9.6 | – | – | –
4 | Fel 1-5: TRFP chain 1 amino acids 8-17 (RDVDLFLTGT; UniProt P30438 30-39, looked up, fragment) | 286 | 5.2 | – | – | –
5 | Fel 4-1: TRFP chain 1 amino acids 37-52 (NARILKNCVDAKMTEE; UniProt P30438 59-74, looked up, fragment) | 822 | 9.9 | – | – | –
6 | Fel 4-2: TRFP chain 1 amino acids 37-49 (NARILKNCVDAKM; UniProt P30438 59-71, looked up, fragment) | 378 | 6.2 | – | – | –
7 | Fel 8: TRFP chain 1 amino acids 1-30 (EICPAVKRDVDLFLTGTPDEYVEQVAQYKA; UniProt P30438 23-52, looked up, fragment) | – | – | – | – | secondary T cell response of patient 131 [1]: respond
8 | Fel 14-2: TRFP chain 1 amino acids 29-42 (KALPVVLENARILK; UniProt P30438 51-64, looked up, fragment) | – | 4.6 | – | – | T cell response [2, 6]: respond at a similar level or better; T cell response ([2]; patient 386, T cells primed with native TRFP): positively respond; T cell response [2, 7]: respond at a similar level or better; T cell response [2, 8]: positively respond
9 | Fel 14-3: TRFP chain 1 amino acids 25-36 (VAQYKALPVVLE; UniProt P30438 47-58, looked up, fragment) | 621 | 6.9 | – | – | –
10 | Fel 16: TRFP chain 2 amino acids 1-22 (DTMRGALLVLALLVTQALGVKM) | – | – | 283 | 5.9 | –
11 | Fel 17: TRFP chain 2 amino acids 12-33 (LLVTQALGVKMAETCPIFYDVF) | – | – | – | – | T cell response [2, 6]: respond at a similar level or better; T cell response ([2]; patient 519, cells primed with peptide YXZ): positive responses; T cell response [2, 7]: respond at a similar level or better; T cell response [2, 8]: positively respond
12 | Fel 32-3: TRFP chain 2 amino acids 16-24 (QALGVKMAE) | – | – | 270 | 3.7 | –
13 | Fel 33-1: TRFP chain 2 amino acids 26-36 (CPIFYDVFFAV) | – | – | 340 | 5.4 | –
14 | Fel 33-2: TRFP chain 2 amino acids 26-38 (CPIFYDVFFAVAN) | – | – | 210 | 4.2 | –
15 | Fel 33-3: TRFP chain 2 amino acids 26-40 (CPIFYDVFFAVANGN) | – | – | 235 | 5.0 | –
16 | LLLDLSLTKVNATEPERTAMKKIQDC [Fel 18, TRFP chain 2 amino acids 23-48] | – | – | 466 | 6.3 | RATIO IFN/IL-4 [3]: 0.5; RATIO IL-2/IL-4 [3]: 0.4; STIMULATION INDEX IFN-γ ([3]; PCR, vs medium control): 5.6; STIMULATION INDEX IL-2 ([3]; PCR, vs medium control): 4.6; STIMULATION INDEX IL-4 ([3]; PCR, vs medium control): 12.0; T cell response [2, 7]: respond at a similar level or better
